Here are results for ten molecules from ChEMBL document CHEMBL1201862, “PubChem BioAssay data set” (2004).

Some test systems named below: LOX IMVI; MCF7; HT-29; HCT-15; SK-MEL-28; CAKI-1; HOP-62; HOP-92; MDA-MB-435; NCI-H460; OVCAR-8; SK-MEL-5; ACHN; NCI/ADR-RES; OVCAR-5; SN12C; NCI-H23; Malme-3M; EKVX; KM12.
Common to all, as to test: growth of human tumour cells (NCI), 48 h

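Step 1: Grow cells in 96-well plates. Step 2: Expose to compound for 48 hours at 5 concentrations. Step 3: Interpolate endpoints linearly; if unreached, use highest concentration. GI50 = concentration required for 50% inhibition of growth.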 The source made the active and inactive calls. Rule as the data show it: active = GI50 up to about 1.1 µM and inactive = higher. Where only a bound is given, the exact number is not on record here.

For `O=C1Nc2nnc(S)n2NC12c1ccccc1-c1ccccc12`, the GI50 in the assay on LOX IMVI is 58.9 µM (inactive); with MCF7, 33.2 µM (inactive); in the assay with HT-29 it was > 100 µM (inactive); with HCT-15 it was 97.3 µM; in the assay on SK-MEL-28 it was > 100 µM (inactive); with CAKI-1 it was 57.3 µM (inactive). Moreover, the GI50 was > 100 µM (inactive) in the assay on HOP-62; > 100 µM (inactive) in the assay with HOP-92; 16.8 µM (inactive) in the assay with MDA-MB-435; 39.4 µM (inactive) in the assay with NCI-H460; > 100 µM (inactive) with OVCAR-8; > 100 µM (inactive) with SK-MEL-5. Also, the GI50 with ACHN, in the assay on NCI/ADR-RES, with OVCAR-5, in the assay on SN12C, with NCI-H23 and in the assay on Malme-3M was > 100 µM (inactive) throughout. For the same molecule, the GI50 with EKVX is > 100 µM (inactive).
For the molecule `CC[C@@H]1C[C@@H](O)[C@@H]2[C@H](O)[C@H](O)CN2C1`, the GI50 with LOX IMVI is > 100 µM (inactive); in the assay with MCF7 it was > 100 µM (inactive); with HT-29 it was > 100 µM (inactive); in the assay with HCT-15 it was over 100 µM; with SK-MEL-28 it was > 100 µM (inactive); in the assay with CAKI-1, > 100 µM (inactive). Besides, the GI50 in the assay with HOP-92, with MDA-MB-435, with NCI-H460, in the assay on OVCAR-8, in the assay on KM12 and with SK-MEL-5 was > 100 µM (inactive) in each case. In addition, the GI50 in the assay on ACHN, in the assay on NCI/ADR-RES, with OVCAR-5, with SN12C, with NCI-H23 and in the assay on Malme-3M was > 100 µM (inactive) throughout. The GI50 in the assay with EKVX is > 100 µM (inactive).
For `O=C(Nc1ccc(Cl)cc1Cl)c1cc2nc3ccccc3c(=O)n2c2ccccc12`, the GI50 with LOX IMVI is > 10 µM (inactive); in the assay with MCF7, > 10 µM (inactive); in the assay on HT-29 it was > 10 µM (inactive); with HCT-15, over 10 µM; in the assay on SK-MEL-28, > 10 µM (inactive); with CAKI-1, > 10 µM (inactive). For the same molecule, the GI50 in the assay with HOP-62, in the assay with HOP-92, with MDA-MB-435, with NCI-H460, in the assay with OVCAR-8 and with KM12 was > 10 µM (inactive) each time. Besides, the GI50 with SK-MEL-5, in the assay with NCI/ADR-RES, in the assay on OVCAR-5, in the assay with NCI-H23, in the assay on Malme-3M and in the assay on EKVX was > 10 µM (inactive) in each case.
With `CC(=O)C1C(=O)C(=O)N(c2cccc([N+](=O)[O-])c2)C1=O` (centres undefined), the GI50 in the assay with LOX IMVI was > 100 µM (inactive); with MCF7 it was > 100 µM (inactive); in the assay on HT-29 it was > 100 µM (inactive); with HCT-15, over 100 µM; with SK-MEL-28, > 100 µM (inactive); in the assay on CAKI-1, > 100 µM (inactive). Besides, the GI50 in the assay on HOP-62, in the assay with HOP-92, with MDA-MB-435, in the assay on NCI-H460, with OVCAR-8 and in the assay on KM12 was > 100 µM (inactive) each time. The GI50 in the assay on SK-MEL-5, in the assay with ACHN, in the assay with NCI/ADR-RES, in the assay on OVCAR-5, in the assay with SN12C and in the assay on NCI-H23 was > 100 µM (inactive) throughout. Further, the GI50 in the assay on EKVX is > 100 µM (inactive).
Consider `Cc1nc(=O)[nH]c2s/c(=N/C3CCCCC3)n(C3CCCCC3)c(=O)c12`, for which the GI50 was > 100 µM (inactive) with LOX IMVI; > 100 µM (inactive) in the assay on MCF7; > 100 µM (inactive) in the assay with HT-29; over 100 µM in the assay with HCT-15; > 100 µM (inactive) in the assay on SK-MEL-28; > 100 µM (inactive) in the assay on CAKI-1. Moreover, the GI50 in the assay with HOP-62, in the assay with HOP-92, with MDA-MB-435, with OVCAR-8, in the assay on KM12 and with SK-MEL-5 was > 100 µM (inactive) throughout. The GI50 with ACHN, in the assay with NCI/ADR-RES, with OVCAR-5, with SN12C, in the assay with NCI-H23 and in the assay on Malme-3M was > 100 µM (inactive) each time. In addition, the GI50 with EKVX is > 100 µM (inactive).
`C[N+]1(CCC[N+]2(C)CC3C4C=CC(CC4)C3C2)CCOCC1` (centres undefined): the GI50 in the assay with LOX IMVI was > 100 µM (inactive); with MCF7, > 100 µM (inactive); in the assay with HT-29 it was > 100 µM (inactive); with HCT-15, over 100 µM; with SK-MEL-28 it was > 100 µM (inactive); with CAKI-1, > 100 µM (inactive). The GI50 in the assay with HOP-62 is > 100 µM (inactive); in the assay with HOP-92, > 100 µM (inactive); in the assay on MDA-MB-435 it was > 100 µM (inactive); in the assay with OVCAR-8, > 100 µM (inactive); with KM12, > 100 µM (inactive); with SK-MEL-5, 18.5 µM (inactive). Besides, the GI50 with ACHN, in the assay on NCI/ADR-RES, with OVCAR-5, with SN12C, with NCI-H23 and with Malme-3M was > 100 µM (inactive) each time. Further, the GI50 in the assay on EKVX is > 100 µM (inactive).
For the molecule `CCCCC1=C(C(=O)N2CCOCC2)C2(OCCO2)C1Cl` (centres undefined), the GI50 is 28.2 µM (inactive) with LOX IMVI; 20 µM (inactive) in the assay on MCF7; 24.4 µM (inactive) in the assay with HT-29; 26.9 µM in the assay with HCT-15; 23 µM (inactive) with SK-MEL-28; 29.2 µM (inactive) with CAKI-1. Also, the GI50 was 35.2 µM (inactive) in the assay on HOP-62; 50.2 µM (inactive) in the assay on HOP-92; 21.7 µM (inactive) with MDA-MB-435; 45.9 µM (inactive) in the assay on OVCAR-8; 20.7 µM (inactive) in the assay on KM12; 18.5 µM (inactive) with SK-MEL-5. The GI50 in the assay on ACHN is 20 µM (inactive); with NCI/ADR-RES, 45.9 µM (inactive); in the assay on OVCAR-5, 19.4 µM (inactive); with SN12C, 22.2 µM (inactive); in the assay with NCI-H23, 25.5 µM (inactive); with Malme-3M it was 33.6 µM (inactive). Moreover, in the assay on EKVX, the GI50 is 47.1 µM (inactive).
In the case of `O=c1c2cc(S(=O)(=O)Nc3ccccc3Cl)ccc2ncn1NS(=O)(=O)c1ccc(Br)cc1`, the GI50 in the assay with LOX IMVI is > 37.5 µM (inactive); in the assay on MCF7 it was > 37.5 µM (inactive); in the assay on HT-29, > 37.5 µM (inactive); in the assay on HCT-15, over 37.5 µM; in the assay with SK-MEL-28, > 37.5 µM (inactive); in the assay on CAKI-1 it was > 37.5 µM (inactive). Also, the GI50 with HOP-62, in the assay on HOP-92, in the assay with MDA-MB-435, with NCI-H460, in the assay with OVCAR-8 and in the assay on KM12 was > 37.5 µM (inactive) each time. Also, the GI50 in the assay with ACHN, in the assay on NCI/ADR-RES, with OVCAR-5, in the assay with SN12C, in the assay with NCI-H23 and with Malme-3M was > 37.5 µM (inactive) in each case. In the assay with EKVX, the GI50 is > 37.5 µM (inactive).
Regarding `CN1Cc2ccccc2/C=C\c2ccccc21`, the GI50 with LOX IMVI was 72.9 µM (inactive); in the assay on MCF7, 24.7 µM (inactive); in the assay with HT-29, 28.1 µM (inactive); in the assay with HCT-15 it was 52.4 µM; in the assay with SK-MEL-28, > 100 µM (inactive); with CAKI-1 it was 40.9 µM (inactive). The GI50 in the assay on HOP-62 is > 100 µM (inactive); in the assay with HOP-92, 28 µM (inactive); in the assay on MDA-MB-435 it was 39.8 µM (inactive); in the assay with NCI-H460 it was 42.7 µM (inactive); in the assay with OVCAR-8, > 100 µM (inactive); with KM12, 52.4 µM (inactive). The GI50 with SK-MEL-5 is 40.2 µM (inactive); in the assay on ACHN, > 100 µM (inactive); in the assay on NCI/ADR-RES, > 100 µM (inactive); in the assay with SN12C it was 83.4 µM (inactive); in the assay with NCI-H23, 62.1 µM (inactive); in the assay with Malme-3M, 51.4 µM (inactive). The GI50 in the assay on EKVX is 30.8 µM (inactive).
For the molecule `O=C(O)c1ccc(OCc2nc3cc(C(F)(F)F)ccc3nc2-c2ccccc2)cc1`, the GI50 was 40 µM (inactive) in the assay with LOX IMVI; 45 µM (inactive) in the assay on MCF7; 32.1 µM (inactive) in the assay with HT-29; 39.1 µM in the assay on HCT-15; 61 µM (inactive) with SK-MEL-28; 5.52 µM (inactive) in the assay on CAKI-1. Besides, the GI50 is 66.2 µM (inactive) with HOP-62; 29 µM (inactive) in the assay on HOP-92; 55.2 µM (inactive) in the assay on MDA-MB-435; 24.7 µM (inactive) in the assay on NCI-H460; 41.9 µM (inactive) in the assay with OVCAR-8; 30.1 µM (inactive) in the assay on KM12. Further, the GI50 in the assay with SK-MEL-5 was 32.1 µM (inactive); with ACHN, 30.9 µM (inactive); in the assay with NCI/ADR-RES, 44.6 µM (inactive); with OVCAR-5, > 100 µM (inactive); in the assay on SN12C, 60.4 µM (inactive); in the assay on NCI-H23 it was 36.8 µM (inactive). In addition, the GI50 in the assay on EKVX is 55.7 µM (inactive).
